# Test results taken from article PMC9817970 (Cancers, 2022).
# Key:
# Experiment in all cases: Kinase panel profiling
# Assay type in all cases: biochemical
# Conditions in all cases: 10 μM ATP
# FMS = biological target: T1, FMS (Homo sapiens, UniProt P07333)
# T1 construct: purchased Reaction Biology Corp
# Method: (§1) Kinase panel profiling was conducted by Reaction Biology Corp. (San Diego, CA, USA). A single dose (1.0 μM) of 6r was tested against 371 recombinant human kinases in the presence of 10 μM ATP.
# CDK4/cyclin D1 = biological target: T2, CDK4/cyclin D1 (Homo sapiens, UniProt P11802)
# T2 construct: purchased Reaction Biology Corp
# Method: as §1
# NIM1 = biological target: T3, NIM1 (Homo sapiens, UniProt Q8IY84)
# T3 construct: purchased Reaction Biology Corp
# Method: as §1
# DDR1 = biological target: T4, DDR1 (Homo sapiens, UniProt Q08345)
# T4 construct: purchased Reaction Biology Corp
# Method: as §1
# MSK1/RPS6KA5 = biological target: T5, MSK1/RPS6KA5 (Homo sapiens, UniProt O75582)
# T5 construct: purchased Reaction Biology Corp
# Method: as §1
# HIPK3 = biological target: T6, HIPK3 (Homo sapiens, UniProt Q9H422)
# T6 construct: purchased Reaction Biology Corp
# Method: as §1
# c-MER = biological target: T7, c-MER (Homo sapiens, UniProt Q12866)
# T7 construct: purchased Reaction Biology Corp
# Method: as §1
# RET = biological target: T8, RET (Homo sapiens, UniProt P07949)
# T8 construct: purchased Reaction Biology Corp
# Method: as §1
# SBK1 = biological target: T9, SBK1 (Homo sapiens, UniProt Q52WX2)
# T9 construct: purchased Reaction Biology Corp
# Method: as §1
# FLT4/VEGFR3 = biological target: T10, FLT4/VEGFR3 (Homo sapiens, UniProt P35916)
# T10 construct: purchased Reaction Biology Corp
# Method: as §1
# CAMK4 = biological target: T11, CAMK4 (Homo sapiens, UniProt Q16566)
# T11 construct: purchased Reaction Biology Corp
# Method: as §1
# CLK4 = biological target: T12, CLK4 (Homo sapiens, UniProt Q9HAZ1)
# T12 construct: purchased Reaction Biology Corp
# Method: as §1
# DCAMKL1 = biological target: T13, DCAMKL1 (Homo sapiens, UniProt O15075)
# T13 construct: purchased Reaction Biology Corp
# Method: as §1
# MAPKAPK3 = biological target: T14, MAPKAPK3 (Homo sapiens, UniProt Q16644)
# T14 construct: purchased Reaction Biology Corp
# Method: as §1
# TESK1 = biological target: T15, TESK1 (Homo sapiens, UniProt Q15569)
# T15 construct: purchased Reaction Biology Corp
# Method: as §1
# CDK8/cyclin C = biological target: T16, CDK8/cyclin C (Homo sapiens, UniProt P49336)
# T16 construct: purchased Reaction Biology Corp
# Method: as §1
# MEKK6 = biological target: T17, MEKK6 (Homo sapiens, UniProt O95382)
# T17 construct: purchased Reaction Biology Corp
# Method: as §1
# GRK5 = biological target: T18, GRK5 (Homo sapiens, UniProt P34947)
# T18 construct: purchased Reaction Biology Corp
# Method: as §1
# HGK/MAP4K4 = biological target: T19, HGK/MAP4K4 (Homo sapiens, UniProt O95819)
# T19 construct: purchased Reaction Biology Corp
# Method: as §1
# EPHA4 = biological target: T20, EPHA4 (Homo sapiens, UniProt P54764)
# T20 construct: purchased Reaction Biology Corp
# Method: as §1
# MYO3A = biological target: T21, MYO3A (Homo sapiens, UniProt Q8NEV4)
# T21 construct: purchased Reaction Biology Corp
# Method: as §1
# JAK3 = biological target: T22, JAK3 (Homo sapiens, UniProt P52333)
# T22 construct: purchased Reaction Biology Corp
# Method: as §1
# MARK2/PAR-1Ba = biological target: T23, MARK2/PAR-1Ba (Homo sapiens, UniProt Q7KZI7)
# T23 construct: purchased Reaction Biology Corp
# Method: as §1
# PKAcg = biological target: T24, PKAcg (Homo sapiens, UniProt P22612)
# T24 construct: purchased Reaction Biology Corp
# Method: as §1
# FLT3 = biological target: T25, FLT3 (Homo sapiens, UniProt P36888)
# T25 construct: purchased Reaction Biology Corp
# Method: as §1
# SGK1 = biological target: T26, SGK1 (Homo sapiens, UniProt O00141)
# T26 construct: purchased Reaction Biology Corp
# Method: as §1
# MARK4 = biological target: T27, MARK4 (Homo sapiens, UniProt Q96L34)
# T27 construct: purchased Reaction Biology Corp
# Method: as §1
# ROCK1 = biological target: T28, ROCK1 (Homo sapiens, UniProt Q13464)
# T28 construct: purchased Reaction Biology Corp
# Method: as §1
# SIK2 = biological target: T29, SIK2 (Homo sapiens, UniProt Q9H0K1)
# T29 construct: purchased Reaction Biology Corp
# Method: as §1
# SLK/STK2 = biological target: T30, SLK/STK2 (Homo sapiens, UniProt Q9H2G2)
# T30 construct: purchased Reaction Biology Corp
# Method: as §1
# COT1/MAP3K8 = biological target: T31, COT1/MAP3K8 (Homo sapiens, UniProt P41279)
# T31 construct: purchased Reaction Biology Corp
# Method: as §1
# YES/YES1 = biological target: T32, YES/YES1 (Homo sapiens, UniProt P07947)
# T32 construct: purchased Reaction Biology Corp
# Method: as §1
# ALK6/BMPR1B = biological target: T33, ALK6/BMPR1B (Homo sapiens, UniProt O00238)
# T33 construct: purchased Reaction Biology Corp
# Method: as §1
# PBK/TOPK = biological target: T34, PBK/TOPK (Homo sapiens, UniProt Q96KB5)
# T34 construct: purchased Reaction Biology Corp
# Method: as §1
# MSSK1/STK23 = biological target: T35, MSSK1/STK23 (Homo sapiens, UniProt Q9UPE1)
# T35 construct: purchased Reaction Biology Corp
# Method: as §1
# ULK3 = biological target: T36, ULK3 (Homo sapiens, UniProt Q6PHR2)
# T36 construct: purchased Reaction Biology Corp
# Method: as §1
# TRKC = biological target: T37, TRKC (Homo sapiens, UniProt Q16288)
# T37 construct: purchased Reaction Biology Corp
# Method: as §1
# CHK2 = biological target: T38, CHK2 (Homo sapiens, UniProt O96017)
# T38 construct: purchased Reaction Biology Corp
# Method: as §1
# PKD2/PRKD2 = biological target: T39, PKD2/PRKD2 (Homo sapiens, UniProt Q9BZL6)
# T39 construct: purchased Reaction Biology Corp
# Method: as §1
# PASK = biological target: T40, PASK (Homo sapiens, UniProt Q96RG2)
# T40 construct: purchased Reaction Biology Corp
# Method: as §1
# CDK7/cyclin H = biological target: T41, CDK7/cyclin H (Homo sapiens, UniProt P50613)
# T41 construct: purchased Reaction Biology Corp
# Method: as §1
# SGK2 = biological target: T42, SGK2 (Homo sapiens, UniProt Q9HBY8)
# T42 construct: purchased Reaction Biology Corp
# Method: as §1
# T41 sequence (P50613 whole entry): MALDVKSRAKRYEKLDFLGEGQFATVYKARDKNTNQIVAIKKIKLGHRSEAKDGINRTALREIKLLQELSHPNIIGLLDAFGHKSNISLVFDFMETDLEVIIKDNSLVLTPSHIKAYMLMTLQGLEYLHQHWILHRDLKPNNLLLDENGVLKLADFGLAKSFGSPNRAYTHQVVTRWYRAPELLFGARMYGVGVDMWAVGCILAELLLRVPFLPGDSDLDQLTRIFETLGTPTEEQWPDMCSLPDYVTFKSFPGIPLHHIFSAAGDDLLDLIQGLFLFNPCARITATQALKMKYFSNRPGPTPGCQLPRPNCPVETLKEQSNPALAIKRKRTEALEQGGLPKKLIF
# T41 sequence (P51946 whole entry partner): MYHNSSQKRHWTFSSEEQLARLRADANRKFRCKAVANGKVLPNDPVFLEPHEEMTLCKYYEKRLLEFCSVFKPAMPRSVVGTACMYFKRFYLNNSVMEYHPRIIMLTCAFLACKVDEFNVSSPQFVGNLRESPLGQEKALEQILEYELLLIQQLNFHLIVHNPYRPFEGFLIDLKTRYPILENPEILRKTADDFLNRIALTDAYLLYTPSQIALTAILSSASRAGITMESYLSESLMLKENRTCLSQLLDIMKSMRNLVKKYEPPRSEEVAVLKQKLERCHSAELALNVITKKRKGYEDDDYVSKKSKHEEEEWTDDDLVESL
# T41 sequence (P51948 whole entry partner): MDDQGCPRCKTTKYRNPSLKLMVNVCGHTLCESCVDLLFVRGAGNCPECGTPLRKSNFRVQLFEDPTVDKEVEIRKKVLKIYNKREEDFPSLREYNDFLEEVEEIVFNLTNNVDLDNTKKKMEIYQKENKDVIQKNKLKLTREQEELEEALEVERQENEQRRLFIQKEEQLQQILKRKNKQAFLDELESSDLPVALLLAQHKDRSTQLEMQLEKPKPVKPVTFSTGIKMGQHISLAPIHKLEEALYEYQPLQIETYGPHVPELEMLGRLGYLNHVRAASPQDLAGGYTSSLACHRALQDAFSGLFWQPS
# T25 sequence (P36888 27-993): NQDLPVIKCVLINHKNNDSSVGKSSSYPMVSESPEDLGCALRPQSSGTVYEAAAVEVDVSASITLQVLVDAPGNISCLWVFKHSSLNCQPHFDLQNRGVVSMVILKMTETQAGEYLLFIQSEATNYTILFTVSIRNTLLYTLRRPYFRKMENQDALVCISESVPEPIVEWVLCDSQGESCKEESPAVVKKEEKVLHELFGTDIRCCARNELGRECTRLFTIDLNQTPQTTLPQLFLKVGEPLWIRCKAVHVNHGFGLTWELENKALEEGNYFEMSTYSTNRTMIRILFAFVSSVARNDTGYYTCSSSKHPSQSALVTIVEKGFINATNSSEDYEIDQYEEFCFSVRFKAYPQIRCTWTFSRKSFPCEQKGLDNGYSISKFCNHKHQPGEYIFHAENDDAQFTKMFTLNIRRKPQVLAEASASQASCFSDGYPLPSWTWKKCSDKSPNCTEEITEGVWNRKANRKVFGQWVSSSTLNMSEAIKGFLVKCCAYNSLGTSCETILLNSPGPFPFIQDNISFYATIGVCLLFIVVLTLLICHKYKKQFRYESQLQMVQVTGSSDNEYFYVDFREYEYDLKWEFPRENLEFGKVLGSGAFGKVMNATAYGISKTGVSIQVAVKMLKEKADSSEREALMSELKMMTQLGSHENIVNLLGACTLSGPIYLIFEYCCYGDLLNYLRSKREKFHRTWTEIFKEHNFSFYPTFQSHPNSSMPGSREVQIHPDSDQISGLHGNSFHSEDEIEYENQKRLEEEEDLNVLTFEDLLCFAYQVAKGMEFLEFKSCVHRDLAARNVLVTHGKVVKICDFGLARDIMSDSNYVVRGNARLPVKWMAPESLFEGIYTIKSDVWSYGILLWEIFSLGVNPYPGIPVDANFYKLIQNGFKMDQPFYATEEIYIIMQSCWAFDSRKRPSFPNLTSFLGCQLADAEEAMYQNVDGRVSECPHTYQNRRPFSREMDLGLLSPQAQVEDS
# T13 sequence (O15075 whole entry): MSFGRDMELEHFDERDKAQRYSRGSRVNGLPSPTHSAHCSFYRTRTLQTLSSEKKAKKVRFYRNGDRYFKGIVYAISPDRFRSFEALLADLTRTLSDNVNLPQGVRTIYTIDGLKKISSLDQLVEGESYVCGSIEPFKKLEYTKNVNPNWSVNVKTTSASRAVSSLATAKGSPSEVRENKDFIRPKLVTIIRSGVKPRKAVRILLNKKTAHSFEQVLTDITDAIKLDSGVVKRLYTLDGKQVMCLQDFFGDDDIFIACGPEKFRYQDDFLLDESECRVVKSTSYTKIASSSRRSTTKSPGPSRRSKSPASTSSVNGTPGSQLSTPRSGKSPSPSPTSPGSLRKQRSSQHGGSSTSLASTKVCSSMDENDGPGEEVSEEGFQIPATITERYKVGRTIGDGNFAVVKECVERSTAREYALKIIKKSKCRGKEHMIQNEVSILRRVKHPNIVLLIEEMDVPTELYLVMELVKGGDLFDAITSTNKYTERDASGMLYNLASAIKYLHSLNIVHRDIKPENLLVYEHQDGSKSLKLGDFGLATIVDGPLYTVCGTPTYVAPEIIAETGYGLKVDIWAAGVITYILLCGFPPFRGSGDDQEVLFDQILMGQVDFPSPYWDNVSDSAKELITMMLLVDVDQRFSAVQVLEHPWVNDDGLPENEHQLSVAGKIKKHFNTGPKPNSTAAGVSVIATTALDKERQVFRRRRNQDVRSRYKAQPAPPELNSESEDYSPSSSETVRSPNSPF
# T3 sequence (Q8IY84 whole entry): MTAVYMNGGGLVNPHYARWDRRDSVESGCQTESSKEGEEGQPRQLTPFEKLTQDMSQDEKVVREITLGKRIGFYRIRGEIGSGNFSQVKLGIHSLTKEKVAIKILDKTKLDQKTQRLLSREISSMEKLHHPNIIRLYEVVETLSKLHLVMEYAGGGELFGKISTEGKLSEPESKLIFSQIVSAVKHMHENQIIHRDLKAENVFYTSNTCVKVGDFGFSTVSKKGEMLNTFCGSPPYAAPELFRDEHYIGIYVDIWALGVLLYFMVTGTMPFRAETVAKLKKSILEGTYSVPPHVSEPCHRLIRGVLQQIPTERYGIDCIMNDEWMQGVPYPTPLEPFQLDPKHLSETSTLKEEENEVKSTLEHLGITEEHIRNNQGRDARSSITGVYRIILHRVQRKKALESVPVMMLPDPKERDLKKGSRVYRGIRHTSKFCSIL
# T23 sequence (Q7KZI7 whole entry): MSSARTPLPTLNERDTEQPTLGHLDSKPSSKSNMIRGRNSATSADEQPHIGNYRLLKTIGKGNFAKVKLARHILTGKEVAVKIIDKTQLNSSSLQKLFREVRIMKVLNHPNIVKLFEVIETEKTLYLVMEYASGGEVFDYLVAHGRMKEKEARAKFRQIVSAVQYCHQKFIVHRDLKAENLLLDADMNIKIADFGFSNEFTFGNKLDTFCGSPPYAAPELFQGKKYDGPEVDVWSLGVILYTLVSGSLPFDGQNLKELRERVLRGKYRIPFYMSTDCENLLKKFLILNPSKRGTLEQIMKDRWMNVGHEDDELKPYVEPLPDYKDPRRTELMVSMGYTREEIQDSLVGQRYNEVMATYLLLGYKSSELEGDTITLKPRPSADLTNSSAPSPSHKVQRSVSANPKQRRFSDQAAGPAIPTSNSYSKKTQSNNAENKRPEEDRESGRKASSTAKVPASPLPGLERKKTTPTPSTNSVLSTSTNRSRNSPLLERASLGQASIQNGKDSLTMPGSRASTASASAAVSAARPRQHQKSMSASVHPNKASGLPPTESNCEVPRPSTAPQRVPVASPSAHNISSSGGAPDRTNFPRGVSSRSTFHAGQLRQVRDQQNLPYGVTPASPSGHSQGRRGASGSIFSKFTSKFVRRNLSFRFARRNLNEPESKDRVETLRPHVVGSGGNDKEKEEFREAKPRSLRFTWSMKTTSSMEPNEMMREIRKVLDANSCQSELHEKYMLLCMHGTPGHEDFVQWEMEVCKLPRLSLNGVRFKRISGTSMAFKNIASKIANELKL
# T39 sequence (Q9BZL6 whole entry): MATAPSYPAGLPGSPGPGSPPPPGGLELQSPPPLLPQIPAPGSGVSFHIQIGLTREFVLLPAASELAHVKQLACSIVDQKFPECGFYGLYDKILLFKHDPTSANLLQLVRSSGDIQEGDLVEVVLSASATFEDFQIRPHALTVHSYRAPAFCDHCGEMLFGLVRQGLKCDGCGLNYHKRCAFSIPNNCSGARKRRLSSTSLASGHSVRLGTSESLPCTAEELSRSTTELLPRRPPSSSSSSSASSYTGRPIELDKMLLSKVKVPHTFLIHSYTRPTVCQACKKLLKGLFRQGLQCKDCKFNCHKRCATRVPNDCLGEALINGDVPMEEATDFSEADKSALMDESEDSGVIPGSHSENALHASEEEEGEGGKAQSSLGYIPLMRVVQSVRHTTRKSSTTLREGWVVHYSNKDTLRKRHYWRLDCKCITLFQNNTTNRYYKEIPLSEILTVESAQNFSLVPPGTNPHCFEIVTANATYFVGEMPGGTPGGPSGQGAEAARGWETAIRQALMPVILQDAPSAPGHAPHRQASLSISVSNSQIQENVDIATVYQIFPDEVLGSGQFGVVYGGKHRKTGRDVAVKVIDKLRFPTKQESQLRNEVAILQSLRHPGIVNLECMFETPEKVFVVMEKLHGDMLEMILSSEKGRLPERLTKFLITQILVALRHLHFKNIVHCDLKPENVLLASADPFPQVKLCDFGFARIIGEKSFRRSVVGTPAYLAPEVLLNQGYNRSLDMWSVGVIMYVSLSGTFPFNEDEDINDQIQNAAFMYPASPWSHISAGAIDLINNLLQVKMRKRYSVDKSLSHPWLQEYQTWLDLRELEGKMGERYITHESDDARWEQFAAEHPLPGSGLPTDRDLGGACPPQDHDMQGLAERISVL
compound,measurement,setting,value
Cc1ccc(NC(=O)c2ccc(CN3CCN(C)CC3)c(C(F)(F)F)c2)cc1-c1cnc2sc(N)nc2c1 [6r],inhibition at 1 µM,FMS,99%
same,inhibition at 1 µM,CDK4/cyclin D1,4.7%
same,inhibition at 1 µM,NIM1,1.3%
same,inhibition at 1 µM,DDR1,99.9%
same,inhibition at 1 µM,MSK1/RPS6KA5,0%
same,inhibition at 1 µM,HIPK3,0.2%
same,inhibition at 1 µM,c-MER,6.1%
same,inhibition at 1 µM,RET,99.4%
same,inhibition at 1 µM,SBK1,6.7%
same,inhibition at 1 µM,FLT4/VEGFR3,77.8%
same,inhibition at 1 µM,CAMK4,3.2%
same,inhibition at 1 µM,CLK4,7.7%
same,inhibition at 1 µM,DCAMKL1,1.5%
same,inhibition at 1 µM,MAPKAPK3,10.7%
same,inhibition at 1 µM,TESK1,5.3%
same,inhibition at 1 µM,CDK8/cyclin C,0%
same,inhibition at 1 µM,MEKK6,8%
same,inhibition at 1 µM,GRK5,5.8%
same,inhibition at 1 µM,HGK/MAP4K4,0%
same,inhibition at 1 µM,EPHA4,64.7%
same,inhibition at 1 µM,MYO3A,15%
same,inhibition at 1 µM,JAK3,7.8%
same,inhibition at 1 µM,MARK2/PAR-1Ba,0%
same,inhibition at 1 µM,PKAcg,29.2%
same,inhibition at 1 µM,FLT3,0%
same,inhibition at 1 µM,SGK1,11.6%
same,inhibition at 1 µM,MARK4,2%
same,inhibition at 1 µM,ROCK1,0.2%
same,inhibition at 1 µM,SIK2,5.6%
same,inhibition at 1 µM,SLK/STK2,37.8%
same,inhibition at 1 µM,COT1/MAP3K8,9.2%
same,inhibition at 1 µM,YES/YES1,77%
same,inhibition at 1 µM,ALK6/BMPR1B,15%
same,inhibition at 1 µM,PBK/TOPK,4.3%
same,inhibition at 1 µM,MSSK1/STK23,30.6%
same,inhibition at 1 µM,ULK3,7.2%
same,inhibition at 1 µM,TRKC,13.6%
same,inhibition at 1 µM,CHK2,4.8%
same,inhibition at 1 µM,PKD2/PRKD2,28.6%
same,inhibition at 1 µM,PASK,4.6%
same,inhibition at 1 µM,CDK7/cyclin H,3.2%
same,inhibition at 1 µM,SGK2,3.8%
